PubChem BioAssay (NCI)
Where “and” joins values, the source holds several entries; their conditions need not be identical. Identical values can stand only once.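 Each compound was tested at five concentrations against cells in 96-well plates for 48 hours. GI50: concentration for 50% inhibition of growth. TGI: total growth inhibition.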

How the values were obtained:
Test in all cases: DTP human tumour cell line panel, 48 h
EKVX NSCLC = system: EKVX NSCLC
HOP-62 NSCLC = system: HOP-62 NSCLC
HOP-92 NSCLC = system: HOP-92 NSCLC
KM12 colon = system: KM12 colon
NCI-H226 lung = system: NCI-H226 lung
NCI-H23 lung = system: NCI-H23 lung
OVCAR-8 ovarian = system: OVCAR-8 ovarian
RPMI-8226 leukemia = system: RPMI-8226 leukemia
SN12C renal = system: SN12C renal
SR leukemia = system: SR leukemia

SMILES	TGI (EKVX NSCLC)	TGI (HOP-62 NSCLC)	TGI (HOP-92 NSCLC) [µM]	TGI (KM12 colon) [µM]	TGI (NCI-H226 lung) [µM]	TGI (NCI-H23 lung)	TGI (OVCAR-8 ovarian)	TGI (RPMI-8226 leukemia)	TGI (SN12C renal)	TGI (SR leukemia)	GI50 (EKVX NSCLC)	GI50 (HOP-62 NSCLC)	GI50 (HOP-92 NSCLC) [µM]	GI50 (KM12 colon)	GI50 (NCI-H226 lung) [µM]	GI50 (NCI-H23 lung)	GI50 (OVCAR-8 ovarian)	GI50 (RPMI-8226 leukemia)	GI50 (SN12C renal)	GI50 (SR leukemia)
C1CCN(CCC2CCCCN2)CC1 (stereo not drawn)	> 100 µM	> 100 µM	> 100	> 100	> 100	> 100 µM	> 100 µM	> 100 µM	> 100 µM	> 100 µM	–	–	–	–	–	–	–	–	–	–
COc1cc2c(cc1OC)-c1cc3cc(OC)c(OC)cc3n1CC2	> 100 µM	> 100 µM	> 100	> 100	73.5	> 100 µM	73.1 µM	> 100 µM	> 100 µM	> 100 µM	–	–	–	–	–	–	–	–	–	–
C=C/C=C(\NC(=O)C(Cl)(Cl)Cl)[Si](C)(C)C	> 100 µM	> 100 µM	> 100	> 100	> 100	> 100 µM	> 100 µM	> 100 µM	> 100 µM	> 100 µM	–	–	–	–	–	–	–	–	–	–
CC(C)CCOc1ccc(-c2n[nH]c(C(F)(F)F)c2-c2cncc(C#N)c2)c(O)c1	13.2 µM	7.65 µM	3.33	> 100	9.98	7.59 µM	19.1 µM	4.65 µM	15.9 µM	11.8 µM	2.28 µM	2.61 µM	0.519	3.33 µM	2.57	1.77 µM	2.78 µM	0.697 µM	2.34 µM	2010 nM
O=[N+]([O-])c1ccc(-c2nc(-c3ccccc3)c(-c3ccccc3)n2-c2ccccc2)cc1	> 26.6 µM	> 86.2 µM	7.44	5.6	> 24.5	11.3 µM	> 100 µM	5.43 µM	12.4 µM	> 100 µM	2.93 µM	5.36 µM	2.42	2.3 µM	4.57	2.62 µM	3.19 µM	1.53 µM	2.69 µM	6200 nM
CC(C)(C)c1nc2c(o1)C(=O)c1ccccc1C2=O	6.51 µM	6.34 µM	6.44	6.76	6.36	1.78 µM	3.37 µM	16.8 µM	2.29 µM	45 µM	–	–	–	–	–	–	–	–	–	–
CC(=O)OC1CC(n2cc(F)c(=O)[nH]c2=O)OC1CO (stereo not drawn)	> 100 µM	10.1 µM	> 69	> 100	> 100	77.1 µM	> 100 µM	> 100 µM	> 100 µM	> 100 µM	–	–	–	–	–	–	–	–	–	–
CC1/C=C/C=C/C=C/C=C/C=C/C=C/C=C/C(O[C@@H]2O[C@H](C)[C@H](O)[C@@H](O)[C@@H]2N)CC(O)C(C(=O)O)C(O)CC(=O)CC(O)CC(O)CC(O)CC(=O)CCCC(=O)CC(=O)OC1C(C)CC(C)C(O)CC(=O)c1ccc(N)cc1 (stereo partly drawn)	0.126 µM and 0.484 µM	0.118 µM and 0.402 µM	0.537	–	0.581	0.102 µM and 0.371 µM	0.152 µM and 1.23 µM	0.171 µM and 0.682 µM	0.114 µM and 0.317 µM	0.254 µM and 0.422 µM	0.0644 µM and 0.221 µM	0.063 µM and 0.192 µM	0.184	0.0694 µM and 0.574 µM	0.218	0.055 µM and 0.187 µM	0.0701 µM and 0.347 µM	0.0748 µM and 0.238 µM	0.0586 µM and 0.174 µM	83.5 nM and 168 nM
COc1ccc(/C(Cl)=C(\C=O)c2ccc([N+](=O)[O-])cc2)cc1OC	> 59.7 µM	> 100 µM	24.9	94.4	> 54.8	15.8 µM	> 86 µM	> 25.8 µM	22.1 µM	83.3 µM	–	–	–	–	–	–	–	–	–	–
O=P(O)(O)c1ccccc1 (tested in a mixture with another compound)	> 100 µM	> 100 µM	> 100	> 100	> 100	> 100 µM	> 100 µM	> 100 µM	> 100 µM	> 100 µM	–	–	–	–	–	–	–	–	–	–
CCCCCC(O)C1C(=O)OC(C)C(O)/C=C/C=C/C=C/C=C\C=C(\C)C(O)CC(O)CC(O)CC(O)CC(O)CC(O)CC1O (stereo not drawn)	> 100 µM	> 100 µM	> 100	> 100	> 100	> 100 µM	> 100 µM	> 100 µM	> 100 µM	> 100 µM	> 100 µM	> 100 µM	> 100	> 100 µM	> 100	> 100 µM	> 100 µM	> 100 µM	> 100 µM	> 100000 nM
C/C(=N\NC(=O)c1ccncc1)c1ccc2ccccc2c1O	> 100 µM	> 72.7 µM	> 100	60.8	12.1	> 51 µM	35.3 µM	> 64.4 µM	40.9 µM	32 µM	–	–	–	–	–	–	–	–	–	–
CCSCC(N)C(=O)O (stereo not drawn)	> 100 µM	> 100 µM	> 100	> 100	> 100	> 100 µM	> 100 µM	> 100 µM	> 100 µM	> 100 µM	–	–	–	–	–	–	–	–	–	–
COc1ccc(NC(=O)n2nc(N)c3ccccc32)cc1OC	> 100 µM	> 100 µM	> 100	> 100	> 100	> 100 µM	> 100 µM	80.8 µM	> 100 µM	> 100 µM	54.1 µM	75.2 µM	24.6	67.9 µM	83.1	83.5 µM	39.7 µM	21.1 µM	> 100 µM	29300 nM
Cc1ccc(-c2nc(SCC(=O)O)n[nH]2)cc1	> 100 µM	> 100 µM	> 100	> 100	> 100	> 100 µM	> 100 µM	> 100 µM	> 100 µM	> 100 µM	–	–	–	–	–	–	–	–	–	–
CC(=O)Nc1ccc(Sc2ccc([N+](=O)[O-])o2)cc1	25.2 µM	10.5 µM	3.55	9.08	8.7	10.2 µM	13.4 µM	8.65 µM	10.7 µM	12.6 µM	4.46 µM	3.37 µM	1.76	2.84 µM	2.88	2.99 µM	3.06 µM	2.13 µM	2.96 µM	2800 nM
CCOC(=O)C(=O)Nc1c(F)cc(F)cc1Br	> 100 µM	> 100 µM	> 100	> 100	> 100	> 100 µM	> 100 µM	> 100 µM	> 100 µM	> 100 µM	–	–	–	–	–	–	–	–	–	–
C=C(C)[C@@H]1CC[C@]2(C)[C@H](C(=O)C=C3[C@@H]4C[C@](C)(C(=O)N5CCN(C)CC5)CC[C@]4(C)CC[C@]32C)[C@@]1(C)CCC#N	14 µM	13.3 µM	10.2	13.4	15.9	14.3 µM	16.2 µM	15.4 µM	12.9 µM	9.07 µM	7.24 µM	6.33 µM	3.25	6.43 µM	7.42	6.97 µM	8.12 µM	5.47 µM	6.37 µM	1780 nM
CCOC(=O)C(=O)Nc1ccc(C)cc1C	> 100 µM	> 100 µM	> 100	> 100	> 100	> 100 µM	> 100 µM	> 100 µM	> 100 µM	> 100 µM	–	–	–	–	–	–	–	–	–	–
COc1ccc(C(=O)c2ccc(OC)c(OC)c2OC)cc1	> 100 µM	> 100 µM	> 100	25.2	> 100	> 100 µM	> 100 µM	> 100 µM	> 100 µM	> 100 µM	4.77 µM	2.39 µM	5.4	0.492 µM	34.7	3.32 µM	3 µM	2.59 µM	8.33 µM	347 nM
CCCCCCCCCCCCCCCCCC1=NCCN1CS(=O)(=O)O	25 µM	31.4 µM	26.2	8.49	40.1	33.4 µM	48.9 µM	90.1 µM	28.9 µM	> 100 µM	11.4 µM	14.1 µM	7.82	2.78 µM	17.4	15.4 µM	20.4 µM	26.6 µM	12.8 µM	7850 nM
CCNCC(=O)O[C@]1(CC)C(=O)OCc2c1cc1n(c2=O)Cc2cc3ccccc3nc2-1	> 100 µM	0.274 µM	13.8	13.4	1.29	0.879 µM	5.68 µM	4.07 µM	11.2 µM	0.0327 µM	–	–	–	–	–	–	–	–	–	–
CC(C)[C@@]12C[C@@H](OC(=O)[C@H]3CO3)[C@@](C)(O1)[C@@H]1CC[C@@H](C)[C@H]1[C@@H]2OC(=O)/C=C/c1ccccc1	> 75.6 µM	> 100 µM	27.1	> 60	32.2	> 100 µM	> 52.4 µM	68.2 µM	41.2 µM	> 100 µM	16.3 µM	33.2 µM	9.22	19.1 µM	13.8	19.7 µM	0.434 µM	13.5 µM	11.9 µM	24700 nM
O=C1OCC(c2cccs2)=C1Cl	> 100 µM	> 100 µM	> 100	> 100	95.5	> 100 µM	> 100 µM	> 100 µM	> 100 µM	> 100 µM	40.5 µM	> 100 µM	54.5	76.3 µM	28.2	60.6 µM	90.1 µM	32.2 µM	26.7 µM	> 100000 nM
Cc1nc2sccn2c(=O)c1CCN1CCC(=C(c2ccc(F)cc2)c2ccc(F)cc2)CC1	24.1 µM	33.4 µM	19.2	27.4	41	29 µM	41 µM	25.2 µM	29.3 µM	26.7 µM	10.7 µM	17.9 µM	5.16	12.2 µM	15.3	13.2 µM	17 µM	3.78 µM	14.5 µM	551 nM
CCOC(=O)c1sc2nc3sc(N=Nc4ccc(Cl)cc4)c(O)n3c(=S)c2c1C	39.6 µM	> 100 µM	45.8	> 100	21.6	42.4 µM	95.6 µM	> 100 µM	46.5 µM	> 100 µM	5.43 µM	30.3 µM	7.47	31.2 µM	–	14.2 µM	29.4 µM	21.4 µM	15.5 µM	> 100000 nM
COc1cc(NCCCCN=C(N)NC(N)=NC(C)C)c2ncccc2c1	> 62 µM	28.6 µM	12.5	11.8	> 100	10.1 µM	27.7 µM	11 µM	28.5 µM	32.6 µM	5.83 µM	13.7 µM	1.28	1.48 µM	27	0.984 µM	8.18 µM	1.51 µM	5.21 µM	7010 nM
Brc1ccc(-c2nnc(-c3nn(-c4ccccc4)c4nc5ccccc5nc34)o2)cc1	> 100 µM	> 100 µM	> 100	> 100	> 100	> 100 µM	> 100 µM	> 100 µM	> 100 µM	> 100 µM	–	–	–	–	–	–	–	–	–	–
